How the values were obtained:
[1] = tested on: PHA-activated PBMCs; test: Example 10: [3H]-thymidine proliferation of PHA-activated PBMCs, compound diluted in DMSO; type: cell-based, human; conditions: for inhibition relative to the controls: DMSO 0.25%; for inhibitory effect on PBMCs (summary of Examples 9 and 10): 100 and 50 μg/ml (61S), 100, 50 and 25 (74S)
Description: (§1) Human PBMCs were prepared from a blood bank and plated out at a concentration of 10^5 cells per well in a standard 96-well plate. PHA was added to each well at a concentration of 10 μg/ml together with AV 61S or PPG-7 (both in PBS) at concentrations of 50 μg/ml, 1 μg/ml, 100 ng/ml, 1 ng/ml and 100 pg/ml respectively for AV 61S and 50 μg/ml, 1 μg/ml and 10 ng/ml for PPG-7. The cells were then incubated for 7 days. [3H]-thymidine (NET-027 Thymidine [methyl-3H] from NEN 6.7 Ci/mmol Batch 3106446) was added to each well 48 hours after plating at a concentration of 1 mCi/well; a second dose was added to each well 18 hours before the end of the experiment. The cells were then harvested and counted for 1 min./sample.
Example 9 was repeated using separately compounds AV 61S, AV 61R and AV 74S and AV 74R. In each case the test compound was diluted in DMSO to a final concentration of 0.25%. A single dose of [3H]-thymidine (NET-027 Thymidine [methyl-3H] from NEN 6.7 Ci/mmol Batch 3106446) was added to each well 18 hours before the end of the experiment.

[2] = tested on: PBMC cells; test: Toxicity against PBMC cells by Alamar Blue reagent; conditions: 24 h and 48 h incubation
Description: Human PBMC cells were obtained from a blood bank and plated out on a standard 96-well plate at a concentration of 10^5 cells/well. PHA (10 μg/ml) and AV 61S (or AV 74S) at different dilutions in DMSO of 100 μg/ml, 50 μg/ml, 25 μg/ml, 10 μg/ml and 1 μg/ml were added simultaneously to each well. The cells were incubated for 24 hours.
After 24 hours, Alamar Blue reagent was added up to 10% of the total well volume.
The controls were medium only and CsA (1 mg/1 ml EtOH).
The contents of each well were then assayed 1 hour, 3 hours and 6 hours after addition of Alamar Blue by fluorescence in the manner known to those skilled in the art to determine the viability of the PBMCs.

[3] = tested on: PHA-activated PBMCs; test: Example 9: [3H]-thymidine proliferation of PHA-activated PBMCs, compound in PBS; type: cell-based, human; conditions: 50 μg/ml, 7 days, PHA 10 μg/ml
Description: as §1
The controls were medium alone and CsA (1 mg in 1 ml ethanol).

(S) 2-N (3-O-(polypropyleneglycol)-1-propyl-4-hydroxybenzene)-3-phenylpropylamide [AV 74S]
inhibition relative to the controls ([1]; 50 μg/ml): 81%
inhibition relative to the controls ([1]; 100 μg/ml): 100%
inhibitory effect on PBMCs (summary of Examples 9 and 10) [1]: inhibitory effect
toxicity (Alamar Blue dyeing) ([2]; 100 μg/ml): same activity and toxicity pattern as Cyclosporine (CsA)
toxicity (Alamar Blue dyeing) ([2]; all concentrations 1-100 μg/ml except AV 74S at 100 μg/ml): non-toxic effect

(S) 2-N (3-O-polypropyleneglycol)propylbenzene)-3-(4-hydroxyphenyl)propylamide [AV 61S]
inhibition relative to the controls [3]: 60%
inhibition relative to the controls ([1]; 50 μg/ml): about 49%
inhibition relative to the controls ([1]; 100 μg/ml): about 97%
inhibitory effect on PBMCs (summary of Examples 9 and 10) [1]: inhibitory effect
